The source of these data is BindingDB's records for doi:10.1016/j.ejmech.2023.115171 (Shenyang Pharmaceutical University, 2023).

Each structure is given as a SMILES string.

Usually IC50 stands for the concentration at which inhibition is half-maximal.

This assay addresses Hypoxia-inducible factor 1-alpha. Briefly: Inhibition of HIF-1 alpha transcriptional activity in human U-251 cells incubated for 24 hrs under hypoxia condition by luciferse reporter assay. On the technique in general: A reporter such as luciferase makes a cellular process visible.
Compound `COc1ccc(/C=C/C(=O)c2ccc3c(c2O)C=CC(C)(C)O3)cc1OCCN1CCC(C)CC1` yielded an IC50 of 3.99 µM.

For the compound `COc1ccc(/C=C/C(=O)c2ccc3c(c2O)C=CC(C)(C)O3)cc1OCCN1CCOCC1`, 10.6 µM corresponded to half-maximal inhibition (IC50).

`COc1ccc(/C=C/C(=O)c2ccc3c(c2O)C=CC(C)(C)O3)cc1OCCN1CCN(C)CC1` registered an IC50 of 3.6 µM.

Compound `COc1ccc(/C=C/C(=O)c2ccc3c(c2O)C=CC(C)(C)O3)cc1OCCN1CCCC1` yielded an IC50 of 2.38 µM.

In turn, `COc1ccc(/C=C/C(=O)c2ccc3c(c2O)C=CC(C)(C)O3)cc1OCCCN1CCCCC1` yielded an IC50 of 5.38 µM.

`COc1ccc(/C=C/C(=O)c2ccc3c(c2O)C=CC(C)(C)O3)cc1OCCCN1CCC(C)CC1` had an IC50 of 6.23 µM.

Compound `COc1ccc(/C=C/C(=O)c2ccc3c(c2O)C=CC(C)(C)O3)cc1OCCCN1CCOCC1` displayed an IC50 of 3.31 µM.

The compound `COc1ccc(/C=C/C(=O)c2ccc3c(c2O)C=CC(C)(C)O3)cc1OCCCN1CCN(C)CC1` had an IC50 of 5.19 µM.

As for `COc1ccc(/C=C/C(=O)c2ccc3c(c2O)C=CC(C)(C)O3)cc1OCCCN1CCCC1`, the IC50 stood at 2.38 µM.

Compound `CCN(CC)CCCOc1cc(/C=C/C(=O)c2ccc3c(c2O)C=CC(C)(C)O3)ccc1OC` showed an IC50 of 5.65 µM.

In the case of `COc1cc(/C=C/C(=O)c2ccc3c(c2O)C=CC(C)(C)O3)ccc1OCCN1CCCCC1`, it took 5.4 µM to reach half-maximal inhibition (IC50).

Take `COc1cc(/C=C/C(=O)c2ccc3c(c2O)C=CC(C)(C)O3)ccc1OCCN1CCC(C)CC1`: the IC50 was 5.75 µM.

`COc1cc(/C=C/C(=O)c2ccc3c(c2O)C=CC(C)(C)O3)ccc1OCCN1CCOCC1`: the IC50 came out at 8.09 µM.

Consider `COc1cc(/C=C/C(=O)c2ccc3c(c2O)C=CC(C)(C)O3)ccc1OCCN1CCN(C)CC1`, for which the IC50 was determined as 3.6 µM.

`COc1cc(/C=C/C(=O)c2ccc3c(c2O)C=CC(C)(C)O3)ccc1OCCN1CCCC1` displayed an IC50 of 6.45 µM.

`CCN(CC)CCOc1ccc(/C=C/C(=O)c2ccc3c(c2O)C=CC(C)(C)O3)cc1OC`: the IC50 amounted to 6.29 µM.

`COc1cc(/C=C/C(=O)c2ccc3c(c2O)C=CC(C)(C)O3)ccc1OCCCN1CCCCC1`: the IC50 came out at 5.55 µM.

In turn, `COc1cc(/C=C/C(=O)c2ccc3c(c2O)C=CC(C)(C)O3)ccc1OCCCN1CCC(C)CC1` returned an IC50 of 3.78 µM.

With `COc1cc(/C=C/C(=O)c2ccc3c(c2O)C=CC(C)(C)O3)ccc1OCCCN1CCOCC1`, the midpoint of inhibition, the IC50, lay at 10.5 µM.

In the case of `COc1cc(/C=C/C(=O)c2ccc3c(c2O)C=CC(C)(C)O3)ccc1OCCCN1CCN(C)CC1`, the midpoint of inhibition, the IC50, lay at 5.76 µM.

`COc1cc(/C=C/C(=O)c2ccc3c(c2O)C=CC(C)(C)O3)ccc1OCCCN1CCCC1`: the IC50 stood at 2.97 µM.

In turn, `CCN(CC)CCCOc1ccc(/C=C/C(=O)c2ccc3c(c2O)C=CC(C)(C)O3)cc1OC` returned an IC50 of 6.3 µM.

On to `COc1ccc(/C=C/C(=O)c2ccc3c(c2O)C=CC(C)(C)O3)cc1O`, for which the 50% inhibitory concentration (IC50) was found to be 6.98 µM.
